“Also recorded” adds a separate entry of the source. Like-named read-outs stand apart in the source and are kept apart here.
Experiments:
[1] = test system: translation readthrough of PTC in exon 12 of BMPR2; assay type: cell-based; conditions: for population of dual-fluorescence cells (FACS): 293 cells transfected with pTN142; for ratio of DsRed-Express and GFP production (efficiency of readthrough), plate readers: fluorescence monochrome and filter plate readers, data not shown
Text: (§1) (A) An outline of the single cell-based translation readthrough assay. The principle of the reporter system is similar to that mentioned in FIG. 2 with the exception that it contains a translation termination signal in the exon 12. In the event of translation termination at the internal PTC, a DsRed-Express protein will be generated whilst readthrough will produce a fusion dual-fluorescence protein (DsRed Express and GFP). Thus the ratio of two fluorescence intensities determines the efficiency of readthrough. […] (C) Cell expressing fluorescence proteins were analyzed with FACS. Cell transfected with pTN139 generated the highest population of dual-fluorescence cells (FIG. 5Civ), whilst pTN142 produced no or few dual-fluorescence cells. […] GFP (FIG. 5Cii) and DsRed-Express (FIG. 5Ciii) proteins expressing cells were used as fluorescence positive control, whilst untransfected cells (FIG. 5Ci) were used as negative control. (FIG. 5D) The outline of the enzymatic reporter was published elsewhere (Kollmus et al., 1996, Nasim et al., 2000). In brief, translation termination in the internal stop signal generates β-gal protein. In the event of readthrough, a β-gal-luciferase fusion protein will be produced. The ratio of these two proteins was used as the efficiency of readthrough event. For this purpose, two independent constructs were used in our experiment. Construct H8 (pBPLUGA; Kollmus et al., 1996) contains a 17 bp DNA fragment containing an in-frame stop signal. H8A construct (Nasim et al., 2000) is similar to H8 with the exception that it contains a 91 bp DNA fragment.
Single-cell based dual-fluorescence splicing assay constructs were generated by replacing exon 9 of plasmid pTN136 with exon 12 of BMPR2 gene using PCR mutagenesis (14). The resultant splicing unit was cloned into Xho I and Bam HI sites of DsRed Express-GFP vector (Siskoglu and Nasim, unpublished data) and designated as pTN139. Further plasmids pTN140, pTN141, pTN142 and pTN143 bearing mutations in exon 12 at position c.2292insA, c.2386delG, c.2620G>T and c.2695C>T, respectively were generated. A double intron splicing unit was constructed by fusing an additional splicing unit of HC9 (15) at the 3′end of the Ad-Exon 12 unit of pTN136. The splicing unit of HC9 comprises the last 17 nucleotides of the non-muscle exon (NM) of human TPM3 gene together with the following 80-nucleotide intron, which was joined to a fragment of human dystrophin gene containing the last 260 nucleotides of intron 11 followed by the 100 nucleotides of exon 12. The double-intron splicing unit was cloned into EcoRI and KpnI sites of DsRed-Express-GFP vector and designated as pTN153. Plasmid pTN155 is a derivative of pTN153 and harbours a mutation in exon 12 at position c.2386delG.
Gene Transfer, cell culture, enzymatic assay, fluorescence microscopy and fluorescence activated cell sorting (FACS) were carried as described elsewhere (11), (15), (17). Amount of plasmid DNA transfected into HEK293 cell line varied from (from 30 ng to 1 μg) assay to assay.
In addition to PAH, there are also more than 1800 genetic disorders caused by nonsense mutation. Two approaches are currently available to overcome nonsense-associated genetic diseases. […] The aim of other approach is to suppress pre-mature termination; in other words to promote translation readthrough. As the dual-fluorescence assay was successfully utilized to characterize the PTC, we next wished to investigate whether the system can be used to identify factors that promote translation readthrough. To achieve this, we introduced a nonsense mutation into the exon 12 of the BMPR2 gene in such a way that it incorporates a PTC (FIG. 5A). In the event of readthrough, a fusion dual-fluorescence protein (DsRed Express and GFP) will be produced, whilst translation termination generates only DsRed-Express protein. Thus the ratio of two fluorescence intensities determines the efficiency of readthrough. […]

[2] = test system: translation readthrough of in-frame stop signal; experiment: enzyme-based dual-reporter (β-gal-luciferase) readthrough assay, constructs H8 and H8A; assay type: cell-based
Text: as §1, with “(FIG. 5D) The outline of the enzymatic reporter was published elsewhere (Kollmus et al., 1996, Nasim et al., 2000). In brief, translation termination in the internal stop signal generates β-gal protein.” left out, “For this purpose, two independent constructs were used in our experiment. Construct H8 (pBPLUGA; Kollmus et al., 1996) contains a 17 bp DNA fragment containing an in-frame stop signal. H8A construct (Nasim et al., 2000) is similar to H8 with the exception that it contains a 91 bp DNA fragment.” left out
To further validate the efficiency determined by fluorescence assays, we employed an enzyme-based reporter assay. […] In the event of translation termination, β-gal protein is generated, whilst readthrough produces a β-gal and luciferase fusion protein. […]

[3] = test system: translation readthrough of in-frame PTC; experiment: swapped GFP-DsRedExpress dual-fluorescence readthrough assay, plate reader; assay type: cell-based; conditions: HEK293 cells, medium with 0.1% fetal bovine serum, 3-5 days, BMG Labtech plate reader
Text: An outline of the dual-fluorescence reporter. The underlying principle of the reporter is similar to that mentioned above with the exception that the DsRed-express gene is located downstream of the GFP reporter (FIG. 7A). Following transfection the reporter harbouring an in-frame PTC produced only GFP protein (FIG. 7B). The reporter produced both GFP and DsRedExpress proteins following the exchange of the PTC to a sense codon.
A step-by-step outline of the translation readthrough assay (FIG. 8A).
A potential complication of the fluorescence approach was that of an autofluorescence which might interfere with the GFP fluorescence. To address this potential limitation, another set of vector was constructed. In this set of vectors the GFP and DsRed-Express reporters were swapped in such that the GFP is expressed regardless of translation readthrough, whilst the readthrough activates the expression of DsRed-Express protein (FIG. 7A). […] The reporter produced both GFP and DsRed-Express dual-fluorescences once the PTC codon was changed to a sense codon.
We next wished to determine the ratio of DsRed-Express and GFP production, which represents the efficiency of readthrough (FIG. 8A). […] The growth medium was discarded, cells were washed with PBS and the fluorescence intensities were determined using a fluorescence (BMG Labtech) plate reader.

[4] = test system: nonsense codon read-through; conditions: literature values; cited from earlier work
[5] = test system: nonsense mediated RNA decay; experiment: β-galactosidase reporter based NMD assay (gal-luc ratio) with PTC bearing double intron splicing unit; assay type: cell-based; conditions: reporter with c.2386delG or c.2292insA PTC, after treatment with translation/NMD inhibitor
Text: (A) The test system for determining nonsense mediated RNA decay in mammalian cells based on the reporter gene encoding β-galactosidase, which was fused in-frame with the PTC (c.2386delG, c.2292insA) bearing recombinant double intron splicing unit (FIG. 4A). Plasmids bearing c.2292insA (pTN147) and c.2386delG (pTN148) mutations were transfected into HE 293 cells and grown in the presence or absence of NMD inhibitors including puromycin and cycloheximide. The treatments increased the gal-luc ratio of the reporter constructs between 5 and 20 fold (FIG. 4B) compared with untreated control. Compared with cells transfected with the reporter alone, the gal-luc ratio increased between 3 and 6 fold when hUpf1 RNA was knock down by RNAi (FIG. 4C).
Constructs for determining NMD were generated by fusing the double-intron splicing unit of pTN155 at the end of β-galactosidase reporter gene. The double-intron splicing intron was cloned in two steps into pBPLUGA (16). First the splicing unit of HC9 as described above was PCR amplified and cloned into KpnI and BamHI sites of pBPLUGA. The splicing unit of pTN136 was then cloned into SalI/XhoI and BamHI sites of the newly constructed plasmid and designated as pTN148. […]
Gene Transfer, cell culture, enzymatic assay, fluorescence microscopy and fluorescence activated cell sorting (FACS) were carried as described elsewhere (11), (15), (17). […]

| Molecule | population of dual-fluorescence cells (FACS) [1] | ratio of DsRed-Express and GFP production (efficiency of readthrough), plate readers [1] | ratio of gal-luc activity (readthrough efficiency) [2] | increase in the reporter protein [5] [fold] | further results |
| --- | --- | --- | --- | --- | --- |
| gentamicin | significantly high population of dual-fluorescence cells; also recorded: markedly increased | promoted translation readthrough | promoted readthrough efficiency | – | ratio of GFP and DsRedExpress fluorescence intensities (efficiency of readthrough) [3]: promoted the ratio of GFP and DsRedExpress fluorescence intensities; also recorded: promoted translation readthrough |
| CN[C@@H]1[C@@H](O)[C@@H](O[C@@H]2[C@@H](O)[C@H](O[C@H]3O[C@H]([C@@H](C)O)[C@@H](O)[C@H](O)[C@H]3N)[C@@H](N)C[C@H]2N)OC[C@]1(C)O [G418 sulphate] | markedly increased | promoted translation readthrough | promoted readthrough efficiency; also recorded: markedly increased | – | population of dual-fluorescence cells (FACS) ([1]; listed as G418): significantly high population of dual-fluorescence cells; dual-fluorescence of cells ([1]; 293 cells, PTC construct, 5 days after treatment): generated dual-fluorescence |
| O=C(O)c1cccc(-c2noc(-c3ccccc3F)n2)c1 [PTC124] | – | – | – | – | read-through efficiencies [4]: 2-10% |
| COc1ccc(C[C@H](N)C(=O)N[C@H]2[C@@H](O)[C@H](n3cnc4c(N(C)C)ncnc43)O[C@@H]2CO)cc1 [puromycin] | – | – | – | 20 | – |
| C[C@@H]1C[C@@H]([C@H](O)CC2CC(=O)NC(=O)C2)C(=O)[C@@H](C)C1 [cycloheximide] | – | – | – | 5 | – |

Source: patent US20090311695A1, “Method” (priority 2008, published 2009)
